Assay results taken from US12358919B2, “Antibacterial compounds” (Universita' degli Studi di Siena, priority 2019, dated 2025).
Like-named read-outs stand apart in the source and are kept apart here.

Experiments:
Format in all cases: cell-based
[1] = system: Klebsiella pneumoniae ATCC 13833; experiment: microbe, parasite or virus in culture; conditions: for Potentiation fold: ratio MICcompound/MICcompound+polymyxin E; for MIC in presence of colistin: with 0.25xMIC polymyxin E1 (0.12 mg/L); for MIC: Klebsiella pneumoniae, ATCC13833
Protocol: (§1) Growth inhibition or killing of bacteria was investigated using conventional methods widely described in the scientific literature. Parameters such as the Minimum Inhibitory Concentration (MIC) were determined as described in Clinical Laboratory Standard Institute (CLSI) document M07 “Methods for Dilution Antimicrobial Susceptibility Tests for Bacteria That Grow Aerobically, 11th Edition” (2018). Synergistic activity of the compounds described in the present specification were determined by measuring the variation of the MIC's compound in the absence and presence of a sub-inhibitory concentration of a suitable antibacterial agent, such as polymyxin E1. Furthermore, the Fractional Inhibitory Concentrations (FICs) were measured using a chequerboard analysis to determine the average FIC index (FICI), whose value is known to characterize the interaction between two compounds and/or drugs (≤0.5, synergistic interaction; >0.5 and <2, no interaction, additive effect; ≥2, antagonistic interaction). Furthermore, the selectivity of the compounds was investigated by measuring their cytotoxic effect on mammalian cell lines (e.g. HeLa cells).
(§2) Several methods were used to investigate the synergistic activity of the compounds, including (a) the determination of the MIC in the presence of a sub-inhibitory concentration of a suitable antibacterial agent, (b) the determination of the average FICI using a chequerboard analysis and (c) the time-kill curve analysis of a suitable agent (at a sub-inhibitory concentration) in the absence and presence of the pyrazolo[4,3-b]pyridin-6-carboxamide compound at a fixed concentration of 2 or 8 mg/L.
(§3) The MIC of the compound was determined alone and in the presence of a fixed and sub-inhibitory concentration of a suitable antibacterial agent of the polymyxin class, such as polymyxin E1 (colistin). The potentiation fold was computed as the ratio MICcompound/MICcompound+polymyxin E. Tested organisms included Escherichia coli CCUG^TKlebsiella pneumoniae ATCC 13833 and Acinetobacter baumannii ATCC 17978, which show a colistin MIC of 0.5, 0.5 and 1 mg/L, respectively.

[2] = system: Acinetobacter baumannii ATCC 17978; experiment: microbe, parasite or virus in culture; conditions: for Potentiation fold: ratio MICcompound/MICcompound+polymyxin E; for MIC in presence of colistin: with 0.25xMIC polymyxin E1 (0.25 mg/L); for MIC: Acinetobacter baumannii, ATCC17978
Protocol: as §1, §2, §3

Escherichia coli CCUG^T = experiment: microbe, parasite or virus in culture; conditions: for Potentiation fold: ratio MICcompound/MICcompound+polymyxin E; for MIC in presence of colistin: with 0.25xMIC polymyxin E1 (0.12 mg/L); for MIC: Escherichia coli
Protocol: as §1, §2, §3

[3] = system: Streptococcus pyogenes ATCC 12344; experiment: MIC, broth microdilution (direct antibacterial activity); conditions: ATCC12344, S. pyogenes ATCC 12344, compound alone, 18-24 h, read-out: MIC
Protocol: as §1
(§4) The MIC values were determined using the broth microdilution method as described in document M07 using Mueller-Hinton broth as culture medium and an initial bacterial inoculum size of 5×10^5 CFU/mL, with a final volume of 100 μL per well in a 96-well microplate. Bacterial strains were Bacillus subtilis ATCC 6633, Enterococcus faecalis ATCC 29212, Streptococcus pyogenes ATCC 12344 and Staphylococcus aureus ATCC 25923. The tested compound concentration ranged from 512 to 0.25 mg/L. Plates were incubated for 18-24 hours at 35±2° C. prior to results analysis.

[4] = system: Enterococcus faecalis ATCC 29212; experiment: as above; conditions: ATCC29212, E. faecalis ATCC 29212, compound alone, 18-24 h, read-out: MIC
Protocol: as §1, §4

[5] = system: Staphylococcus aureus ATCC 25923; experiment: as above; conditions: ATCC25923, S. aureus ATCC 25923, compound alone, 18-24 h, read-out: MIC
Protocol: as §1, §4

[6] = system: Bacillus subtilis ATCC 6633; experiment: as above; conditions: ATCC6633, B. subtilis ATCC 6633, compound alone, 18-24 h, read-out: MIC
Protocol: as §1, §4

[7] = K. pneumoniae ATCC 13833, compound alone, read-out: MIC
[8] = A. baumannii ATCC 17978, compound alone, read-out: MIC
[9] = E. coli CCUG^T, compound alone, read-out: MIC

Compound | Potentiation fold ([1]; K. pneumoniae ATCC 13833) | MIC in presence of colistin ([1]; K. pneumoniae ATCC 13833) | MIC [1, 7] | Potentiation fold ([2]; A. baumannii ATCC 17978) | MIC in presence of colistin ([2]; A. baumannii ATCC 17978) | MIC [2, 8] | Potentiation fold (Escherichia coli CCUG^T; E. coli CCUG^T) | MIC in presence of colistin (Escherichia coli CCUG^T; E. coli CCUG^T) | MIC (Escherichia coli CCUG^T; [9]) | MIC [1] | MIC [2] | MIC (Escherichia coli CCUG^T) | MIC [3] | MIC [4] | MIC [5] | MIC [6]
CCCCn1c(=O)c(C(=O)NC2CCCC2)c(O)c2nn(C)cc21 [Iag, 4-(1-Butyl)-N-cyclopentyl-4,5-dihydro-7-hydroxy-2-methyl-5-oxo-2H-pyrazolo-[4,3-b]pyridin-6-carboxamide] | ≥8 | 64 µg/mL | > 512 µg/mL | ≥4 | 128 µg/mL | > 512 µg/mL | ≥16 | 32 µg/mL | > 512 µg/mL | – | – | – | – | – | – | –
CCCCn1c(=O)c(C(=O)NC23CC4CC(CC(O)(C4)C2)C3)c(O)c2nn(C)cc21 [Ia, 4-(1-Butyl)-4,5-dihydro-7-hydroxy-N-(1-hydroxyadamantan-3-yl)-2-methyl-5-oxo-2H-pyrazolo[4,3-b]pyridin-6-carboxamide] | ≥8 | 64 µg/mL | – | ≥16 | 32 µg/mL | – | ≥16 | 32 µg/mL | – | > 512 µg/mL | > 512 µg/mL | > 512 µg/mL | – | – | – | –
CC(C)n1c(=O)c(C(=O)NC(c2ccccc2)c2ccccc2)c(O)c2nn(C)cc21 [Iab, 4,5-Dihydro-N-(diphenylmethyl)-7-hydroxy-2-methyl-5-oxo-4-(2-propyl)-2H-pyrazolo[4,3-b]pyridin-6-carboxamide] | ≥32 | 16 µg/mL | > 512 µg/mL | ≥32 | 16 µg/mL | > 512 µg/mL | ≥32 | 16 µg/mL | > 512 µg/mL | – | – | – | 32 µg/mL | 32 µg/mL | 32 µg/mL | 16 µg/mL
CCCCn1c(=O)c(C(=O)NC(C)(C)C)c(O)c2nn(C)cc21 [Iaf, 4-(1-Butyl)-4,5-dihydro-N-(1,1-dimethylethyl)-7-hydroxy-2-methyl-5-oxo-2H-pyrazolo[4,3-b]pyridin-6-carboxamide] | ≥16 | 32 µg/mL | > 512 µg/mL | ≥8 | 64 µg/mL | > 512 µg/mL | ≥16 | 32 µg/mL | > 512 µg/mL | – | – | – | 64 µg/mL | 512 µg/mL | 64 µg/mL | 128 µg/mL
CCCCCn1c(=O)c(C(=O)NC23CC4CC(CC(O)(C4)C2)C3)c(O)c2nn(CCO)cc21 [Io, 4,5-Dihydro-7-hydroxy-N-(1-hydroxyadamantan-3-yl)-2-(2-hydroxyethyl)-5-oxo-4-(1-pentyl)-2H-pyrazolo[4,3-b]pyridin-6-carboxamide] | ≥64 | 8 µg/mL | – | ≥128 | 4 µg/mL | – | – | – | – | > 512 µg/mL | > 512 µg/mL | > 512 µg/mL | – | – | – | –
CC(C)n1c(=O)c(C(=O)NC2CCCc3ccccc32)c(O)c2nn(C)cc21 (stereo not shown) [Iaa, 4,5-Dihydro-7-hydroxy-2-methyl-5-oxo-4-(2-propyl)-N-(1,2,3,4-tetrahydro-1-naphthyl)-2H-pyrazolo[4,3-b]pyridin-6-carboxamide] | ≥16 | 32 µg/mL | > 512 µg/mL | ≥32 | 16 µg/mL | > 512 µg/mL | ≥32 | 16 µg/mL | > 512 µg/mL | – | – | – | 32 µg/mL | 64 µg/mL | 64 µg/mL | 16 µg/mL
CCCCn1c(=O)c(C(=O)NC2CCCc3ccccc32)c(O)c2nn(C)cc21 (stereo not shown) [It, 4-(1-Butyl)-4,5-dihydro-7-hydroxy-2-methyl-5-oxo-N-(1,2,3,4-tetrahydro-1-naphthyl)-2H-pyrazolo[4,3-b]pyridin-6-carboxamide] | ≥32 | 16 µg/mL | > 512 µg/mL | ≥32 | 16 µg/mL | > 512 µg/mL | ≥16 | 32 µg/mL | > 512 µg/mL | – | – | – | 64 µg/mL | 64 µg/mL | 32 µg/mL | 32 µg/mL
CCCCn1c(=O)c(C(=O)NC(c2ccccc2)c2ccccc2)c(O)c2nn(C)cc21 [Iu, 4-(1-Butyl)-4,5-dihydro-N-(diphenylmethyl)-7-hydroxy-2-methyl-5-oxo-2H-pyrazolo[4,3-b]pyridin-6-carboxamide] | ≥8 | 64 µg/mL | > 512 µg/mL | ≥16 | 32 µg/mL | > 512 µg/mL | ≥8 | 64 µg/mL | > 512 µg/mL | – | – | – | – | – | – | –
CCCCn1c(=O)c(C(=O)Nc2ccc(F)cc2)c(O)c2nn(C)cc21 [Iae, 4-(1-Butyl)-4,5-dihydro-N-(4-fluorophenyl)-7-hydroxy-2-methyl-5-oxo-2H-pyrazolo[4,3-b]pyridin-6-carboxamide] | ≥2 | 256 µg/mL | > 512 µg/mL | ≥16 | 32 µg/mL | > 512 µg/mL | ≥2 | 256 µg/mL | > 512 µg/mL | – | – | – | 32 µg/mL | 32 µg/mL | 128 µg/mL | 128 µg/mL
CCCn1c(=O)c(C(=O)NC23CC4CC(CC(C4)C2)C3)c(O)c2nn(CCOC(C)=O)cc21 [Ir, 2-(2-Acetoxyethyl)-N-(adamantan-1-yl)-4,5-dihydro-7-hydroxy-5-oxo-4-(1-propyl)-2H-pyrazolo[4,3-b]pyridin-6-carboxamide] | ≥8 | 64 µg/mL | – | ≥16 | 32 µg/mL | – | ≥8 | 64 µg/mL | – | > 512 µg/mL | > 512 µg/mL | > 512 µg/mL | – | – | – | –
CCCCn1c(=O)c(C(=O)NC(C)(C)C)c(O)c2nn(CC)cc21 [Iw, 4-(1-Butyl)-4,5-dihydro-N-(1,1-dimethylethyl)-2-ethyl-7-hydroxy-5-oxo-2H-pyrazolo[4,3-b]pyridin-6-carboxamide] | ≥16 | 32 µg/mL | > 512 µg/mL | ≥8 | 64 µg/mL | > 512 µg/mL | ≥32 | 16 µg/mL | > 512 µg/mL | – | – | – | – | – | – | –
CCCCn1c(=O)c(C(=O)NCc2ccc(F)cc2)c(O)c2nn(C)cc21 [Iac, 4-(1-Butyl)-4,5-dihydro-N-[(4-fluorophenyl)methyl]-7-hydroxy-2-methyl-5-oxo-2H-pyrazolo[4,3-b]pyridin-6-carboxamide] | – | – | – | – | – | – | – | – | – | – | – | – | 32 µg/mL | 64 µg/mL | 128 µg/mL | 64 µg/mL
